In patent publication US20250163119A1, “COMPOUNDS FOR THE TREATMENT OF DIABETES OR OBESITY” (Eli Lilly and Company, priority 2023, published 2025):
Where “and” joins values, the source holds several entries; their conditions need not be identical. Equal entries are not always repeated. *1 amine or outer side, *2 acyl side, *3 side chain or, on linkers, in order; H or OH if unused. [ ]: non-standard residue; d: D form. The star is where a group is joined. C20 diacid = O=C(O)CCCCCCCCCCCCCCCCCCC(=O)*; γGlu = O=C(O)[C@H](CCC(=O)[*:2])N[*:1]; εLys = N[C@@H](CCCCN[*:1])C(=O)[*:2]; αMeL = CC(C)C[C@](C)(N)C(=O)O; AEEA = NCCOCCOCC(=O)O; Aib = CC(C)(N)C(=O)O

Legend:
[1] = system: pre-existing antibodies (ADA) in treatment-naive normal human serum; assay: Pre-existing reactivity (ACE assay format); format: binding; settings: ACE assay format
Method: This assay assessed the presence of pre-existing antibodies (ADA) against the tested molecules in treatment-naive normal human serum (NHS). Diluted NHS was incubated overnight on a Pierce Streptavidin plate coated with biotinylated tested molecules. On the following day, the captured binding proteins were acid eluted, hard-coated to a Mesoscale (MSD) plate, and detected with a combination of biotin-labeled molecule and ruthenium-labeled streptavidin. If anti-drug antibodies were present, they would bind the labeled drug and the resulting signal was referred to as Tier 1 signal (expressed as electrochemiluminescence). […] The presence of pre-existing anti-drug antibodies was expressed as magnitude of the 90th percentile of Tier 2 inhibition. The 90th percentile of Tier 2 inhibition is a statistical tool to assess the magnitude of specificity of Tier 1 reactivity. This 90th percentile was used to rank molecules in terms of ADA risk.

[2] = system: MHC-II presented peptides on human dendritic cells; assay: MAPPS assay (MHC-Associated Peptide Proteomics); format: cell-based
In short: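 CD14+ monocytes from healthy donor PBMCs were differentiated to immature DCs with IL-4/GM-CSF, exposed to test molecules on day 4 and matured with LPS on day 5. On day 6, MHC-II complexes were immunoprecipitated and eluted peptides identified by mass spectrometry; value is percentage of donors presenting peptides from each region.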

[3] = Pharmacokinetics in Sprague Dawley rats, single subcutaneous or intravenous dose (incl. 10, 30, 100 nmol/kg dose response); format: in vivo
[4] = system: CD4+ T cells; assay: T cell proliferation assay; format: cell-based, human; settings: responding donors / donors tested
Method: This assay assessed the ability of tested antibodies or tested MAPPS peptides to activate CD4+ T cells by inducing cellular proliferation. CD8+ T cell depleted PBMC's were prepared and labeled with CFSE. Each sample was tested with media control, keyhole limpet haemocyanin (KLH; positive clinical benchmark control), tested antibodies, or tested MAPPS peptides. Cultures were incubated for 7 days. On day 7, samples were analyzed by flow cytometry.

[5] = Pharmacokinetics in Yucatan mini-pigs, single subcutaneous or intravenous dose; format: in vivo; settings: for Tmax: read-out: Tmax
In short: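 Male mini-pigs received one SC or IV dose (19 or 99 nmol/kg) in 40 mM Tris-HCl 5% D-mannitol, pH 8. Blood sampled 0.083 (IV only) to 504 h postdose. Plasma levels measured by LC/MS after extraction and SPE, Orbitrap detection.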

[6] = dose response, single subcutaneous dose 10 nmol/kg, male Sprague Dawley rats, individual animal
[7] = dose response, single subcutaneous dose 30 nmol/kg, male Sprague Dawley rats, individual animal
[8] = dose response, single subcutaneous dose 100 nmol/kg, male Sprague Dawley rats, individual animal
[9] = male Sprague Dawley rats, single intravenous dose 190 nmol/kg, individual animal
[10] = male, Sprague Dawley, rat, plasma, iv, 190 nmol/kg, single intravenous dose 190 nmol/kg, Mean
[11] = male, Sprague Dawley, rat, plasma, iv, 190 nmol/kg, single intravenous dose 190 nmol/kg, individual animal
[12] = single subcutaneous dose 190 nmol/kg, male Sprague Dawley rats, individual animal
[13] = male Yucatan pigs, single subcutaneous dose 19 nmol/kg, individual animal
[14] = male, Yucatan mini-pig, minipig, plasma, iv, 19 nmol/kg, single intravenous dose 19 nmol/kg, individual animal
[15] = male, Yucatan mini-pig, minipig, plasma, iv, 19 nmol/kg, single intravenous dose 19 nmol/kg, mean
[16] = male, Yucatan mini-pig, minipig, plasma, sc, 19 nmol/kg, single subcutaneous dose 19 nmol/kg, Mean
[17] = male, Yucatan mini-pig, minipig, plasma, sc, 19 nmol/kg, single subcutaneous dose 19 nmol/kg, individual animal
[18] = single intravenous dose 19 nmol/kg, male Yucatan pigs, individual animal

Substance: {C20 diacid-εLys-AEEA-γGlu}-GSPSIVTS[αMeL]DVPT[Aib][αMeL]LQKILEQERAEKARQQATEAAEILAQV-NH2 [SEQ ID NO: 25]
- Pre-existing Reactivity 90th percentile T2 inhibition >50 donors [1]: 4.5%
- MAPPS Assay >10 donors with diverse MHC ([2]; donors displaying MHC-II peptides / donors tested): 0/10
- peptides displayed on MHC-II complexes ([2]; human dendritic cells from normal donors): no peptides displayed on MHC-II complexes
- immunogenicity compared with SEQ ID NO:54 ([2]; in the MAPPs assay and/or the T cell proliferation assay): substantial improvements in immunogenicity over a compound comprising SEQ ID NO:54
- MAPPS Assay >10 donors with diverse MHC ([2]; percentage of donors displaying MHC-II peptides): 0%
- AUC0-inf [3, 6]: 1.05 µM·h and 0.972 µM·h and 1.11 µM·h
- CL/F [3, 6]: 0.175 mL/min/kg and 0.152 mL/min/kg
- Cmax [3, 6]: 20.8 nM and 21.9 nM and 26.8 nM
- T1/2 [3, 6]: 18.6 h and 31.5 h
- Tmax [3, 6]: 6 h
- AUC0-inf [3, 7]: 2.64 µM·h and 2.91 µM·h and 2.96 µM·h
- CL/F [3, 7]: 0.173 mL/min/kg and 0.17 mL/min/kg
- Cmax [3, 7]: 55.0 nM and 68.0 nM and 59.1 nM
- T1/2 [3, 7]: 19.6 h and 20.8 h
- Tmax [3, 7]: 6 h
- AUC0-inf [3, 8]: 12.5 µM·h and 14 µM·h and 13.4 µM·h
- CL/F [3, 8]: 0.119 mL/min/kg and 0.124 mL/min/kg
- Cmax [3, 8]: 239 nM and 316 nM and 328 nM
- T1/2 [3, 8]: 17.4 h and 15.7 h
- AUC0-inf [3, 9]: 41.3 µM·h and 46.9 µM·h and 61.8 µM·h
- C0 [3, 9]: 1610 nM and 3540 nM and 3610 nM
- CL [3, 9]: 0.0673 mL/min/kg and 0.0512 mL/min/kg
- T1/2 [3, 9]: 16.9 h and 18.2 h
- clearance [3, 10]: 0.065 mL/min/kg
- half-life [3, 10]: 17.5 h
- clearance [3, 11]: 0.0765 mL/min/kg
- half-life [3, 11]: 17.4 h
- half-life ([3]; male, Sprague Dawley, rat, plasma, sc, 10 nmol/kg, dose response, single subcutaneous dose 10 nmol/kg, individual animal): 19.9 h
- CL/F ([3]; male, Sprague Dawley, rat, plasma, sc, 10 nmol/kg, dose response, single subcutaneous dose 10 nmol/kg, individual animal, read-out: CL/F (converted)): 0.162 mL/min/kg
- half-life ([3]; male, Sprague Dawley, rat, plasma, sc, 10 nmol/kg, dose response, single subcutaneous dose 10 nmol/kg, mean): 23.3 h
- CL/F ([3]; male, Sprague Dawley, rat, plasma, sc, 10 nmol/kg, dose response, single subcutaneous dose 10 nmol/kg, mean, read-out: CL/F (converted)): 0.163 mL/min/kg
- Tmax ([3]; male, Sprague Dawley, rat, plasma, sc, 10 nmol/kg, dose response, single subcutaneous dose 10 nmol/kg, mean, read-out: Tmax): 18 h
- half-life ([3]; male, Sprague Dawley, rat, plasma, sc, 30 nmol/kg, dose response, single subcutaneous dose 30 nmol/kg, individual animal): 19.2 h
- CL/F ([3]; male, Sprague Dawley, rat, plasma, sc, 30 nmol/kg, dose response, single subcutaneous dose 30 nmol/kg, individual animal, read-out: CL/F (converted)): 0.19 mL/min/kg
- half-life ([3]; male, Sprague Dawley, rat, plasma, sc, 30 nmol/kg, dose response, single subcutaneous dose 30 nmol/kg, mean): 19.9 h
- CL/F ([3]; male, Sprague Dawley, rat, plasma, sc, 30 nmol/kg, dose response, single subcutaneous dose 30 nmol/kg, mean, read-out: CL/F (converted)): 0.178 mL/min/kg
- Tmax ([3]; male, Sprague Dawley, rat, plasma, sc, 30 nmol/kg, dose response, single subcutaneous dose 30 nmol/kg, mean, read-out: Tmax): 18 h
- half-life ([3]; male, Sprague Dawley, rat, plasma, sc, 100 nmol/kg, dose response, single subcutaneous dose 100 nmol/kg, individual animal): 16 h
- CL/F ([3]; male, Sprague Dawley, rat, plasma, sc, 100 nmol/kg, dose response, single subcutaneous dose 100 nmol/kg, individual animal, read-out: CL/F (converted)): 0.133 mL/min/kg
- Tmax ([3]; male, Sprague Dawley, rat, plasma, sc, 100 nmol/kg, dose response, single subcutaneous dose 100 nmol/kg, individual animal, read-out: Tmax): 24 h
- half-life ([3]; male, Sprague Dawley, rat, plasma, sc, 100 nmol/kg, dose response, single subcutaneous dose 100 nmol/kg, mean): 16.4 h
- CL/F ([3]; male, Sprague Dawley, rat, plasma, sc, 100 nmol/kg, dose response, single subcutaneous dose 100 nmol/kg, mean, read-out: CL/F (converted)): 0.126 mL/min/kg
- Tmax ([3]; male, Sprague Dawley, rat, plasma, sc, 100 nmol/kg, dose response, single subcutaneous dose 100 nmol/kg, mean, read-out: Tmax): 24 h
- half-life ([3]; male, Sprague Dawley, rat, plasma, sc, 190 nmol/kg, single subcutaneous dose 190 nmol/kg, individual animal): 14.8 h
- CL/F ([3]; male, Sprague Dawley, rat, plasma, sc, 190 nmol/kg, single subcutaneous dose 190 nmol/kg, individual animal, read-out: CL/F (converted)): 0.136 mL/min/kg
- Tmax ([3]; male, Sprague Dawley, rat, plasma, sc, 190 nmol/kg, single subcutaneous dose 190 nmol/kg, individual animal, read-out: Tmax): 24 h
- half-life ([3]; male, Sprague Dawley, rat, plasma, sc, 190 nmol/kg, single subcutaneous dose 190 nmol/kg, mean): 14.4 h
- CL/F ([3]; male, Sprague Dawley, rat, plasma, sc, 190 nmol/kg, single subcutaneous dose 190 nmol/kg, mean, read-out: CL/F (converted)): 0.137 mL/min/kg
- Tmax ([3]; male, Sprague Dawley, rat, plasma, sc, 190 nmol/kg, single subcutaneous dose 190 nmol/kg, mean, read-out: Tmax): 24 h
- AUC0-inf ([3]; rat, plasma, sc, dose response, single subcutaneous dose 10 nmol/kg, male Sprague Dawley rats, mean, read-out: AUC0-inf): 1.04 µM·h
- Cmax ([3]; rat, plasma, sc, dose response, single subcutaneous dose 10 nmol/kg, male Sprague Dawley rats, mean, read-out: Cmax): 23.2 nM
- AUC0-inf ([3]; rat, plasma, sc, dose response, single subcutaneous dose 30 nmol/kg, male Sprague Dawley rats, mean, read-out: AUC0-inf): 2.84 µM·h
- Cmax ([3]; rat, plasma, sc, dose response, single subcutaneous dose 30 nmol/kg, male Sprague Dawley rats, mean, read-out: Cmax): 60.7 nM
- AUC0-inf ([3]; rat, plasma, sc, dose response, single subcutaneous dose 100 nmol/kg, male Sprague Dawley rats, mean, read-out: AUC0-inf): 13.3 µM·h
- Cmax ([3]; rat, plasma, sc, dose response, single subcutaneous dose 100 nmol/kg, male Sprague Dawley rats, mean, read-out: Cmax): 294 nM
- AUC0-inf ([3]; rat, plasma, sc, single subcutaneous dose 190 nmol/kg, male Sprague Dawley rats, mean, read-out: AUC0-inf): 23.2 µM·h
- Cmax ([3]; rat, plasma, sc, single subcutaneous dose 190 nmol/kg, male Sprague Dawley rats, mean, read-out: Cmax): 508 nM
- AUC0-inf ([3]; rat, plasma, male Sprague Dawley rats, single intravenous dose 190 nmol/kg, Mean, read-out: AUC0-inf): 50 µM·h
- C0 ([3]; rat, plasma, male Sprague Dawley rats, single intravenous dose 190 nmol/kg, Mean, read-out: C0): 2920 nM
- AUC0-inf [3, 12]: 23.4 µM·h and 21.6 µM·h and 24.7 µM·h
- CL/F [3, 12]: 0.147 mL/min/kg and 0.128 mL/min/kg
- Cmax [3, 12]: 466 nM and 475 nM and 582 nM
- T1/2 [3, 12]: 13.9 h and 14.5 h
- T Cell Proliferation Assay: protein 7-10 donors with diverse MHC [4]: 0/9
- AUC0-inf ([5]; Yucatan mini-pig, minipig, plasma, sc, male Yucatan pigs, single subcutaneous dose 19 nmol/kg, Mean, read-out: AUC0-inf): 27.6 µM·h
- Cmax ([5]; Yucatan mini-pig, minipig, plasma, sc, male Yucatan pigs, single subcutaneous dose 19 nmol/kg, Mean, read-out: Cmax): 170 nM
- AUC0-inf [5, 13]: 28.3 µM·h and 26.8 µM·h
- CL/F [5, 13]: 0.012 mL/min/kg
- Cmax [5, 13]: 159 nM and 181 nM
- T1/2 [5, 13]: 70.4 h
- clearance [5, 14]: 0.00755 mL/min/kg
- half-life [5, 14]: 106 h
- clearance [5, 15]: 0.00803 mL/min/kg
- half-life [5, 15]: 96.4 h
- half-life [5, 16]: 75.6 h
- CL/F ([5]; male, Yucatan mini-pig, minipig, plasma, sc, 19 nmol/kg, single subcutaneous dose 19 nmol/kg, Mean, read-out: CL/F (converted)): 0.0116 mL/min/kg
- Tmax [5, 16]: 24 h
- half-life [5, 17]: 80.8 h
- CL/F ([5]; male, Yucatan mini-pig, minipig, plasma, sc, 19 nmol/kg, single subcutaneous dose 19 nmol/kg, individual animal, read-out: CL/F (converted)): 0.0114 mL/min/kg
- Tmax [5, 17]: 24 h
- AUC0-inf ([5]; minipig, plasma, single intravenous dose 19 nmol/kg, male Yucatan pigs, mean, read-out: AUC0-inf): 39.6 µM·h
- C0 ([5]; minipig, plasma, single intravenous dose 19 nmol/kg, male Yucatan pigs, mean, read-out: C0): 534 nM
- AUC0-inf [5, 18]: 41.9 µM·h and 37.2 µM·h
- C0 [5, 18]: 522 nM and 545 nM
- CL [5, 18]: 0.0085 mL/min/kg
- T1/2 [5, 18]: 86.8 h
